Melting point data for one compound are collected here from patent US7557132B2, “Compounds useful as pesticides” (Dow AgroSciences LLC, priority 2002, dated 2009).

The structures appear in SMILES notation.

With `CC(/C(=C/[N+](=O)[O-])Nc1ccccc1)c1ccc(Cl)nc1` (stereo not shown) [Compound 45, N-{(Z)-1-[1-(6-chloro-3-pyridinyl)ethyl]-2-nitroethenyl}aniline], the melting point (as a rule, the temperature, or range, at which the solid turns liquid) fell in the range of 93 to 95 °C.
